From patent US20240116918A1, “SUBSTITUTED TRICYCLIC COMPOUND AS PRMT5 INHIBITOR AND USE THEREOF” (NANJING SANHOME PHARMACEUTICAL CO., LTD., priority 2019, published 2024) come the findings set out here.

By IC50 is commonly meant the concentration that gives 50% inhibition.

This experiment concerns NCI-H358 cells. The experiment in a line: In vitro cell activity, NCI-H358 cells, CCK-8. It counts as cell-based. To be noted: NCI-H358, 168 h, human non-small cell lung cancer cells, 7 days. Here is the method:
Test compounds: the compounds of the present invention prepared in the above example. Each compound was formulated into a 10 mM stock solution with DMSO, and finally diluted into 8 concentrations for detection, with the final concentrations being 33333.00 nM, 6666.60 nM, 1333.32 nM, 266.66 nM, 53.33 nM, 10.67 nM, 2.13 nM, and 0.43 nM for experiments in Z-138 cells.
2.1.3 NCI-H358 cell thawing: The cryovial for NCI-H358 cells was taken out from a liquid nitrogen tank and placed in a 37° C. water bath, and shaken gently for thawing as soon as possible. After thawing, the cryovial was taken out, and sterilized with an alcohol cotton ball, after which the cap was unscrewed. The cell fluid was drawn and injected into a centrifuge tube. 1 mL of 1640 medium containing 10% FBS was added, and mixed uniformly. The tube was placed in a centrifuge, and centrifuged at 1000 rpm for 5 min. Afterwards, the supernatant was discarded, and complete medium was added. The mixture was pipetted repeatedly until the cells were completely dispersed and resuspended. The mixture was inoculated in a petri dish at an appropriate concentration, and cultured in a CO2 incubator at 37° C., 5% CO2, and 95% humidified air.
2.2.3 NCI-H358 cell culture and passage: The cells grew to about 80-90%. The medium (1640 medium+10% FBS+1% penicillin-streptomycin+1 mM sodium pyruvate) was transferred to a 15 mL centrifuge tube, and centrifuged at 1000 rpm for 5 min. The supernatant was removed. The cells were resuspended in complete medium, and inoculated in a petri dish at the desired density. The dish was placed in a CO2 incubator at 37° C., 5% CO2, and 95% humid air. The culture medium was changed every 2-3 days or the passage was carried out, depending on the cell growth.
After passage, NCI-H358 cells were resuspended in complete medium at the corresponding density, 1000 cells/well, and inoculated in a 96-well culture plate. The wells at the outer circumference were filled with 200 μL PBS to prevent the culture conditions of the inside plate wells from being too different from each other due to the faster evaporation of medium at the edge. The leftmost column of the 60 inner wells were blank wells, which were not added with cells, but filled with equal volume of PBS. The remaining 54 wells were subjected to cell plating with a multichannel pipette, to each well was added 100 μL. […]
The first column of PBS was used as a blank control well, and 100 μL of CCK-8 was added synchronously thereto. […] The optimal detection time was determined according to the shade of color developed by CCK-8 (the optimal OD value for the DMSO group was about 1.0). […] The microplate reader software was opened, the detection parameters were adjusted, and the absorbance at 450 nm (OD value) was detected. […]
Molecule `CC(=O)N1CCC(Nc2cc(C(=O)NC[C@H](O)CN3CCc4ccccc4C3)ncn2)CC1` [Compound A, (S)-6-((1-Acetylpiperidin-4-yl)amino)-N-(3-(3,4-dihydroisoquinolin-2(1H)-yl)-2-hydroxypropyl)pyrimidine-4-carboxamide] displayed an IC50 of 0.0732 µM.

In turn, `CC(=O)N1CCC(Nc2cc3c(cn2)C2(CC2)CN(C[C@H](O)CN2CCc4ccccc4C2)C3=O)CC1` [Example 1, (R)-7′-((1-acetylpiperidin-4-yl)amino)-2′-(3-(3,4-dihydroisoquinolin-2(1H)-yl)-2-hydroxypropyl)-2′,3′-dihydro-1′H-spiro[cyclopropane-1,4′-[2,6]naphthyridin]-1′-one] yielded a half-maximal inhibitory concentration (IC50) of 0.0089 µM.

Regarding `CC(=O)N1CCC(Nc2ccc3c(c2)C(=O)N(C[C@H](O)CN2CCc4ccccc4C2)CC32CC2)CC1` [Compound B, (R)-7′-((1-Acetylpiperidin-4-yl)amino)-2′-(3-(3,4-dihydroisoquinolin-2(1H)-yl)-2-hydroxypropyl)-2′,3′-dihydro-1′H-spiro[cyclopropane-1,4′-isoquinolin]-1′-one, reference compound], half-maximal inhibition (IC50) required 0.0154 µM.

Regarding `CC(=O)N1CC2(CC(Nc3cc4c(cn3)C3(CC3)CN(C[C@H](O)CN3CCc5ccccc5C3)C4=O)C2)C1` [Example 2, (R)-7′-((2-acetyl-2-azaspiro[3.3]hept-6-yl)amino)-2′-(3-(3,4-dihydroisoquinolin-2(1H)-yl)-2-hydroxypropyl)-2′,3′-dihydro-1′H-spiro[cyclopropane-1,4′-[2,6]naphthyridin]-1-one], half-maximal inhibition (IC50) required 0.00502 µM.
